Source: PMC4724192 (Biochemistry, 2014)
Several values for one entry are separate records, joined by “and”; a condition that tells them apart may be missing. Identical values can stand only once. Like-named read-outs stand apart in the source and are kept apart here.

Tests used:
2P-ERK2 [1] = target: T1, 2P-ERK2 (Rattus norvegicus, UniProt P63086); test: Preincubation / 300-fold dilution experiment, recovery of activity; conditions: for kinetic behaviour of binding and release: linear product accumulation, rapid recovery on dilution
T1 sequence (P63086 whole entry): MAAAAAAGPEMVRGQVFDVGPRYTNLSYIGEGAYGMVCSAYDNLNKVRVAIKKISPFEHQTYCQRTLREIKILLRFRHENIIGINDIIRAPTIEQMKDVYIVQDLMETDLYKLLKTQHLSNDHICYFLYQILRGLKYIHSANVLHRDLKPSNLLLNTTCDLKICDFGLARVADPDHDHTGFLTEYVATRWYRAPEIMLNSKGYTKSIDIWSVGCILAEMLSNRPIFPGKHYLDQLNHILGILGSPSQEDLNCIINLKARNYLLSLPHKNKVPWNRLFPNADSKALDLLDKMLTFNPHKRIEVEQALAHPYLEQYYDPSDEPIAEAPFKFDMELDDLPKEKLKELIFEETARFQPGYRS

0P-ERK2 = 0P-ERK2 (Rattus norvegicus, UniProt P63086); test: biochemical
Sequence of 0P-ERK2 (P63086 whole entry): as above

2P-ERK2 [2] = target: T1, 2P-ERK2; test: Morrison titration experiment for tight-binding inhibitors; type: biochemical
ERK [3] = conditions: read-out: Kd in vitro; cited from earlier work
ERK2 = conditions: read-out: IC50 Published previously; cited from earlier work
ERK [4] = conditions: read-out: IC50 in vivo (biological activity); cited from earlier work
2P-ERK2 [5] = target: T1, 2P-ERK2; type: biochemical
2P-ERK2 [6] = target: T1, 2P-ERK2; conditions: read-out: IC50 This study; 2P-ERK2, 20 μM sub-D, 100 μM ATP, 25 °C; eq 1
2P-ERK2 [7] = target: T1, 2P-ERK2; conditions: for mode of inhibition (Lineweaver-Burk replots): 2P-ERK2, varying ATP; for Ki: 2P-ERK2, rapid on/off inhibitors, varying ATP, 20 μM sub-D

| Compound | kinetic behaviour of binding and release (2P-ERK2 [1]; 2P-ERK2) | Ki (0P-ERK2) [nM] | Ki (2P-ERK2 [2]) [nM] | Kd (ERK [3]) [nM] | IC50 (ERK2) [nM] | Kd (2P-ERK2 [1]) [nM] | residence time (inverse of koff) (2P-ERK2 [1]; 2P-ERK2, predicted from koff) [h] | koff (2P-ERK2 [1]; read-out: koff (dissociation rate constant)) [s⁻¹] | IC50 (ERK [4]) | kinetic behaviour of onset of inhibition (2P-ERK2 [5]; 2P-ERK2, curved product accumulation) | kon (2P-ERK2 [5]; read-out: kon (apparent rate constant for association)) [M⁻¹ s⁻¹] | IC50 (2P-ERK2 [6]) [µM] | mode of inhibition (Lineweaver-Burk replots) (2P-ERK2 [7]) | Ki (2P-ERK2 [7]) [µM] | kon (rate constant for association), lower bound (2P-ERK2 [1]; 2P-ERK2, inferred from dissociation rate constant >0.05 s^−1) |
| --- | --- | --- | --- | --- | --- | --- | --- | --- | --- | --- | --- | --- | --- | --- | --- |
| Nc1nccc(-c2c(-c3ccc(F)cc3)ncn2C2CCNCC2)n1 [SB220025] | rapid on/off inhibitors |  |  |  |  |  |  |  |  |  |  |  |  |  |  |
| O=C(Nc1ccc2[nH]nc(-c3ccncc3)c2c1)[C@@H]1CCN(CC(=O)N2CCN(c3ccc(-c4ncccn4)cc3)CC2)C1 [SCH772984] |  | 0.12 ± 0.04 | 0.12 ± 0.1 | 0.19 | 0.24 | 0.11 ± 0.021 | 0.9 | 0.000306 | < 100 nM and 60 nM | slow-onset inhibition | 2.8e+06 ± 340000 |  |  |  |  |
| Cn1cnc2c(NCc3ccccc3)nc(NCCO)nc21 [Olomoucin] | rapid on/off inhibitors |  |  |  |  |  |  |  |  |  |  | 33 | competitive versus ATP | 10.8 |  |
| Nc1[nH]nc2nnc(-c3c(-c4ccccc4)nn4ccccc34)cc12 [FR180204] | rapid on/off inhibitors |  |  |  | 140 |  |  |  |  |  |  | 0.33 ± 0.064 | competitive versus ATP | 0.063 ± 0.017 | >0.8 ^d μM^−1 s^−1 |
